Laboratory results published in article PMC11356571, “The Comparative Metabolism of a Novel Hepatocellular Carcinoma Therapeutic Agent, 2,3-Diamino-N-(4-(benzo[d]thiazol-2-yl)phenyl)propanamide, in Human and Animal Hepatocytes” (Metabolites, 2024).

Columns and labels:
[1] = target: T1, CYP2E1 (Homo sapiens, UniProt P05181); test: Incubation with human cDNA-expressed CYP2E1; format: in vitro ADME; conditions: CYP2E1, 30 min at 37 °C with NADPH; ETN101 10 μM or M1 1 μM
T1 construct: purchased Corning Life Sciences (Woburn, MA, USA)
T1 sequence (P05181 whole entry): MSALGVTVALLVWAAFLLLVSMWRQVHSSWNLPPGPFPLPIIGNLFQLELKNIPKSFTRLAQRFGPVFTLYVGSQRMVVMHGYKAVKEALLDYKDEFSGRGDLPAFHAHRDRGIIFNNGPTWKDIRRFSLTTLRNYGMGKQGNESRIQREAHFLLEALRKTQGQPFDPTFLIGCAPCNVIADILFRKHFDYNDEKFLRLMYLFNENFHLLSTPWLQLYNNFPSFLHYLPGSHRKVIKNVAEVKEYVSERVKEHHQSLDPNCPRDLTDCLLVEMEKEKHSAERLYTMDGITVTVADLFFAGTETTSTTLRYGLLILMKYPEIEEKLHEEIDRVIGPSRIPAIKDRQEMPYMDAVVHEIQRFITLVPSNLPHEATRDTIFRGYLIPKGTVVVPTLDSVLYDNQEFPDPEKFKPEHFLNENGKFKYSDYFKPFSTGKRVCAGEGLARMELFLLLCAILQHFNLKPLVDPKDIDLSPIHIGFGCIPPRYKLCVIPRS
Description: ETN101 or M1 was incubated with nine human cDNA-expressed CYP enzymes (1A2, 2A6, 2B6, 2C8, 2C9, 2C19, 2D6, 2E1, and 3A4) to identify the CYPs involved in the metabolism of ETN101. Based on the preliminary study, the incubation conditions were determined as follows: Briefly, reaction mixtures of 50 μL containing ETN101 (final concentration: 10 μM) or M1 (final concentration: 1 μM), and CYPs (final amount: 5 pmol for CYP1A2, 2A6, 2C8, 2C9, 2C19, 2D6, and 3A4; 10 pmol for CYP2B6 and 2E1) were prepared in 0.1 M potassium phosphate buffer. The reaction was initiated by adding 50 μL of NADPH- regenerating system; the mixtures were incubated for 0 min or 30 min at 37 °C in triplicate. Reactions were terminated by the addition of 100 μL of ice-cold acetonitrile containing the IS (camptothecin, 200 ng/mL). Samples were centrifuged at 13,000 rpm for 5 min at 4 °C. An aliquot of 2 μL supernatant was injected in LC–MS/MS system.
For enzyme characterization, an Agilent 6460 triple quadrupole mass spectrometer coupled with a 1260 HPLC system (Agilent Technologies, Santa Clara, CA, USA) and a Kinetex Halo® C18 column (2.7 μm, 2.1 × 50 mm, Advanced Material Technology, Wilmington, DE, USA) were used for chromatographic separation. […] ETN101, M1, and M2 were detected via MRM using ESI in the positive mode. […]

[2] = system: human hepatocytes; test: Metabolite characterization in human hepatocytes; format: in vitro ADME; conditions: human hepatocyte 1 h incubates of ETN101; ND:<1.2E+05 peak area
Description: We mixed 60 μL aliquots of 40 μM ETN101 in incubation medium and an equal volume of human, mouse, rat, dog, or monkey hepatocyte suspension in 96-well plates and incubated for 0 or 1 h in a CO2 incubator at 37 °C. The reactions were quenched by adding 120 µL of ice-cold acetonitrile to each well, and the cell suspension was sonicated for 5 min at 4 °C. Subsequently, centrifugation was carried out at 15,000× g for 10 min at 4 °C. Next, the supernatants were evaporated to dryness using a vacuum concentrator, and residues were re-dissolved in 70 μL of 30% acetonitrile. Each sample (5 μL aliquots) was analyzed using LC–HRMS system.
For metabolite characterization, a Vanquish HPLC system (Thermo Fisher Scientific, San José, CA, USA) coupled with a Q-Exactive Orbitrap mass spectrometer (Thermo Fisher Scientific Inc., Waltham, MA, USA) was used at Core Research Support Center for Natural Products and Medical Materials at Yeungnam University. […] The eluent from the column was directly injected into the mass spectrometer using a heated electrospray ionization (HESI) source in positive ionization mode. […] The spray voltage was 3.0 kV and the capillary temperature was 320 °C. Full scan MS^1 with a data-dependent MS^2 acquisition mode was applied to obtain MS^1 scan data ranging from m/z 80 to 900, at a resolution of 70,000, whereas data-dependent MS^2 spectra were acquired for the five most abundant peaks per cycle at a resolution of 35,000. The parallel reaction monitoring (PRM) mode was used to obtain the MS^2 spectra of putative metabolites detected at low peak intensities in the data-dependent MS^2 acquisition mode. Data were collected and interpreted using Thermo Scientific Xcalibur™ Software (Thermo Fisher Scientific).

Row | Structure (SMILES) | Percentage remaining [1] [%] | Relative peak area (%) [2] [%]
1 | NCC(N)C(=O)Nc1ccc(-c2nc3ccccc3s2)cc1 (stereo not shown) [ETN101, 2,3-diamino-N-(4-(benzo[d]thiazol-2-yl)phenyl)propanamide] | 81.1 | 76.4
2 | Nc1ccc(-c2nc3ccccc3s2)cc1 [M1, 2-(4-aminophenyl)benzothiazole] | 97.3 | 21.0
